Data on 14 compounds can be found in patent EP4582413A1, “ARYLTETRAHYDROPYRIDINE COMPOUND AND PEST CONTROL AGENT” (priority 2022, dated 2024).

Common to all, as to type: in vivo
Assay [1] relates to western flower thrips (Frankliniella occidentalis). In words: Insecticidal activity against western flower thrips. The conditions noted are these: Frankliniella occidentalis, 48 h; 500 ppm chemical solution sprinkled (2.5 mg/cm^2), larvae on common bean leaf, after 2 days; read-out: death rate. The protocol:
Wet filter paper was laid on each styrol cup having an inner diameter of 7 cm, and a common bean leaf cut into a 3 cm square was placed thereon, and inoculated with 20 western flower thrips (Frankliniella occidentalis) larvae. A 10% by mass emulsion of the presently invented compound prepared according to the above formulation example for an emulsion was diluted with water containing a spreader to prepare a chemical solution having a concentration of 500 ppm. For each styrol cup, 2.5 ml of the chemical solution prepared was sprinkled (2.5 mg/cm^2) with a rotary tower sprinkler. […] The test was carried out in duplicate.

Assay [2] relates to brown rice planthoppers (Nilaparvata lugens). The assay can be described thus: Insecticidal test for brown rice planthoppers. The conditions noted are these: Nilaparvata lugens, 144 h; 500 ppm chemical solution, rice leaf sheaths soaked, third-instar larvae, six days, 25°C; read-out: death rate. The protocol:
A 10% by mass emulsion of the presently invented compound prepared according to the above formulation example for an emulsion was diluted with water containing a spreader to prepare a chemical solution having a concentration of 500 ppm. Rice leaf sheaths were soaked in the chemical solution for approximately 10 seconds. After the completion of the soaking operation, the rice leaf sheaths treated with the chemical solution were air-dried, and then put in test tubes. Into each test tube, five third-instar brown rice planthoppers (Nilaparvata lugens) larvae were released, and the test tubes were capped with sponge and accommodated in a thermostatic room at 25°C. Six days after the accommodation, the number of dead brown rice planthoppers individuals in the test tubes were examined, and the death rate was calculated from a calculation formula shown below. The test was carried out in duplicate. [formula]

Assay [3] deals with diamondback moths (Plutella xylostella). The assay can be described thus: Insecticidal test for diamondback moths. The conditions noted are these: Plutella xylostella, 144 h; 500 ppm chemical solution, leaves soaked, third-instar larvae, six days, 25°C; read-out: death rate. The protocol: A 10% by mass emulsion of the presently invented compound prepared according to the above formulation example for an emulsion was diluted with water containing a spreader to prepare a chemical solution having a concentration of 500 ppm. Chinese olive leaves were soaked in the chemical solution for approximately 10 seconds. After the completion of the soaking operation, the Chinese olive leaves treated with the chemical solution were air-dried, and then put in dishes. Into each dish, five third-instar diamondback moths (Plutella xylostella) larvae were released, and the dishes were capped and accommodated in a thermostatic room at 25°C. […] The test was carried out in duplicate.

For assay [4], the system named is cat fleas (Ctenocephalides felis). The assay can be described thus: whole plant or invertebrate. The conditions noted are these: 72 h, read-out: death rate. Here is the method:
In 1 ml of acetone, 1 mg of the presently invented compound was dissolved to prepare a chemical solution having a concentration of 1000 ppm. The bottom surface and side surface of each glass container having an inner wall surface area of 25 cm^2 were coated with 250 µl of the chemical solution, and acetone was then volatilized to form a thin film of the compound on the inner wall of the glass container.
Into each of the treated glass containers, five cat fleas (Ctenocephalides felis) imagoes (mixed-sex) were released, and the glass containers were capped and accommodated in a thermostatic room at 25°C. Three days after the release, the number of dead flea individuals were examined, and the death rate was calculated from the same calculation formula as in Test Example 1.

Some results are limits rather than exact numbers.

On to `O=C(Nc1cnc(Cl)cn1)C1=C(O)CC(c2cnc(Cl)c(-c3ccc(F)nc3)c2)NC1=O` (centres unmarked) [2-011], for which the mortality at 500 µg/mL in assay [1], in assay [2] and in assay [3] was at least 90% throughout. Also, in assay [4], the mortality at 10 µg/cm2 is at least 50%.
Regarding `O=C(Nc1cc(C(F)(F)F)ccn1)C1=C(O)CC(c2cnc(Cl)c(-c3cnccc3F)c2)NC1=O` (centres unmarked) [2-145], the mortality at 500 µg/mL in assay [1], in assay [2] and in assay [3] was at least 90% throughout. Besides, in assay [4], the mortality at 10 µg/cm2 is at least 50%.
Turning to `O=C(Nc1ccc(F)cc1)C1=C(O)CC(c2nc(-c3ccccc3F)no2)NC1=O` (centres unmarked) [3-012], the mortality at 500 µg/mL in assay [1], in assay [2] and in assay [3] was at least 90% each time. The mortality at 10 µg/cm2 in assay [4] is at least 50%.
With `N#Cc1ccc(NC(=O)C2=C(O)CC(c3cnc(Cl)c(-c4ccc(F)nc4)c3)NC2=O)cn1` (centres unmarked) [2-013], the mortality at 500 µg/mL in assay [1], in assay [2] and in assay [3] was at least 90% each time. Also, in assay [4], the mortality at 10 µg/cm2 was at least 50%.
Turning to `O=C(Nc1ccc(F)cc1)C1=C(O)CC(c2nc(-c3ccncc3)no2)NC1=O` (centres unmarked) [3-031], the mortality at 500 µg/mL in assay [1], in assay [2] and in assay [3] was at least 90% each time. The mortality at 10 µg/cm2 in assay [4] is at least 50%.
Turning to `O=C(Nc1cccc(F)n1)C1=C(O)CC(c2nc(-c3ccncc3F)no2)NC1=O` (centres unmarked) [3-238], the mortality at 500 µg/mL in assay [1], in assay [2] and in assay [3] was at least 90% each time. Also, the mortality at 10 µg/cm2 in assay [4] was at least 50%.
With `O=C(Nc1ccc(Cl)nc1)C1=C(O)CC(c2cnc(Cl)c(-c3ccccc3)c2)NC1=O` (centres unmarked) [2-092], the mortality at 500 µg/mL in assay [1], in assay [2] and in assay [3] was at least 90% each time. Further, the mortality at 10 µg/cm2 in assay [4] was at least 50%.
With `O=C(Nc1ccc(F)cc1F)C1=C(O)CC(c2nc(-c3ccc(F)cc3F)no2)NC1=O` (centres unmarked) [3-157], the mortality at 500 µg/mL in assay [1], in assay [2] and in assay [3] was at least 90% throughout. Further, the mortality at 10 µg/cm2 in assay [4] is at least 50%.
As for `N#Cc1ccc(NC(=O)C2=C(O)CC(c3cnc(Cl)c(-c4ccccc4)c3)NC2=O)cn1` (centres unmarked) [2-093], the mortality at 500 µg/mL in assay [1], in assay [2] and in assay [3] was at least 90% throughout. Besides, the mortality at 10 µg/cm2 in assay [4] was at least 50%.
`O=C(Nc1cc(Br)cc(F)n1)C1=C(O)CC(c2cnc(Cl)c(-c3cnccc3F)c2)NC1=O` (centres unmarked) [2-138]: the mortality at 500 µg/mL in assay [1], in assay [2] and in assay [3] was at least 90% each time. The mortality at 10 µg/cm2 in assay [4] was at least 50%.
For `N#Cc1ccc(NC(=O)C2=C(O)CC(c3cnc(Cl)c(-c4ccccc4)c3)NC2=O)nc1` (centres unmarked) [2-094], the mortality at 500 µg/mL in assay [1], in assay [2] and in assay [3] was at least 90% in each case. For the same compound, the mortality at 10 µg/cm2 in assay [4] is at least 50%.
In the case of `Cc1ccc(NC(=O)C2=C(O)CC(c3nc(-c4ccc(F)cc4F)no3)NC2=O)nc1` (centres unmarked) [3-175], the mortality at 500 µg/mL in assay [1], in assay [2] and in assay [3] was at least 90% throughout. Further, the mortality at 10 µg/cm2 in assay [4] was at least 50%.
In the case of `O=C(Nc1cnccn1)C1=C(O)CC(c2cnc(Cl)c(-c3ccc(F)cc3)c2)NC1=O` (centres unmarked) [2-227], the mortality at 500 µg/mL in assay [1], in assay [2] and in assay [3] was at least 90% each time. In assay [4], the mortality at 10 µg/cm2 was at least 50%.
Regarding `O=C(Nc1ccccn1)C1=C(O)CC(c2cnc(Cl)c(-c3ccc(F)nc3)c2)NC1=O` (centres unmarked) [2-096], the mortality at 500 µg/mL in assay [1], in assay [2] and in assay [3] was at least 90% each time. Further, the mortality at 10 µg/cm2 in assay [4] was at least 50%.
